Results on one molecule are retold here after ChEMBL document CHEMBL5335793, “PITB: A high affinity transthyretin aggregation inhibitor with optimal pharmacokinetic properties” (Eur J Med Chem, 2023).

Molecules are shown by their SMILES.

Data set [1] can be described thus: Tmax in CD-1 mouse at 10 mg/kg, po measured for 24 hrs by UPLC-MS/MS analysis. The data set is classed as ADME, organism-based. The note with it: in vivo.
For data set [2], the system named is Transthyretin (Homo sapiens), P02766 [V50M]. Kind of data set: Binding affinity to TTR V30M mutant (unknown origin) expressed in Escherichia coli BL21(DE3) assessed as change in entropy at 100 uM by ITC analysis.
The target of data set [3] is T1, Transthyretin (Homo sapiens, UniProt P02766). As to the kind of experiment: Binding affinity to wild-type TTR (unknown origin) expressed in Escherichia coli BL21(DE3) assessed as change in enthalpy at 100 uM by ITC analysis.
The nature of data set [4]: Half life in CD-1 mouse at 10 mg/kg, po measured for 24 hrs by UPLC-MS/MS analysis. The format is ADME, organism-based. The settings on record: in vivo.
Data set [5] can be described thus: Elimination rate constant in CD-1 mouse at 10 mg/kg, po measured for 24 hrs by UPLC-MS/MS analysis. The format is ADME, organism-based. The settings on record: in vivo.
The subject of data set [6] is Transthyretin (Homo sapiens), P02766 [V142I]. Kind of data set: Binding affinity to TTR V122I mutant (unknown origin) expressed in Escherichia coli BL21(DE3) assessed as change in entropy at 100 uM by ITC analysis. (In general: ITC needs no label: the signal is the heat of the interaction.)
Data set [7] relates to Transthyretin (Homo sapiens), P02766 [V50M]. Kind of data set: Binding affinity to TTR V30M mutant (unknown origin) expressed in Escherichia coli BL21(DE3) assessed as change in enthalpy at 100 uM by ITC analysis.
Data set [8] in a line: Volume of distribution in CD-1 mouse at 10 mg/kg, po measured for 24 hrs by UPLC-MS/MS analysis. The data set is classed as ADME, organism-based. The note with it: in vivo.
The nature of data set [9]: Cmax in CD-1 mouse at 10 mg/kg, po measured for 24 hrs by UPLC-MS/MS analysis. The settings on record: in vivo. Details: dose 10 mg/kg, time 24 hrs, route po. The data set is classed as ADME, organism-based.
The test system of data set [10] is Transthyretin (Homo sapiens), P02766 [V142I]. Kind of data set: Binding affinity to TTR V122I mutant (unknown origin) expressed in Escherichia coli BL21(DE3) assessed as change in enthalpy at 100 uM by ITC analysis.
A short description of data set [11]: AUC (0 to 24 hrs) in CD-1 mouse at 10 mg/kg, po measured for 24 hrs by UPLC-MS/MS analysis. The format is ADME, organism-based. Also noted: time 24 hrs, dose 10 mg/kg, route po. The note with it: in vivo.
In data set [12] the test system is Transthyretin (Homo sapiens), P02766 [V50M]. As to the kind of experiment: Stabilization of TTR V30M mutant in human plasma assessed as degree of tetramer stability at 19.1 uM incubated overnight followed by urea addition measured after 5 hrs by isoelectric focusing based densitometry relative to control. The format is cell-free.
Data set [13] concerns the target T1, Transthyretin. As to the kind of experiment: Binding affinity to wild-type TTR (unknown origin) expressed in Escherichia coli BL21(DE3) assessed as change in entropy at 100 uM by ITC analysis.
Data set [14] is described as follows: Clearance in CD-1 mouse at 10 mg/kg, po measured for 24 hrs by UPLC-MS/MS analysis. The data set is classed as ADME, organism-based. The settings on record: in vivo.

With `Cc1ccc(C(=O)c2cc(O)c(O)c([N+](=O)[O-])c2)cc1` [TOLCAPONE], the Tmax in [1] is under 0.25 h. The -TdeltaS came to 5.1 kcal/mol in [2], 2.2 kcal/mol in data set [6] and 3.6 kcal/mol at Transthyretin [13]. The deltaH on Transthyretin [3] is -13.6 kcal/mol; in data set [7] it was -13.8 kcal/mol; in [10], -12.2 kcal/mol. For the same molecule, in data set [4], the half-life was 1.4 h. In [5], the k el at 24 h is 0.000139 s⁻¹. In [8], this molecule registered a Vd of 1.6 L/kg. The same molecule displayed a Cmax in data set [9] of 7620 ng/mL. The molecule also came in with an exposure AUC(0-t) at 24 h in [11] of 11900 ng·h/mL. Further, the Activity in data set [12] is 4.9%. Moreover, the apparent clearance (CL/F) in [14] is 13.3 mL/min/kg.

One may read the Tmax as the time at which the peak concentration occurs. A word on the half-life: it is the time needed for the level to fall by half in the phase considered. Low readings indicate fast loss, high ones slow loss. As usually defined, the Cmax is the highest concentration seen after dosing. The AUC(0-t) is exposure summed from dosing to a finite time, without extrapolation to infinity. Read a low AUC(0-t) as low exposure. As usually defined, the CL/F is clearance divided by bioavailability, as obtained after extravascular dosing.
